Laboratory results published in ChEMBL document CHEMBL3739320, “Synthesis and biological evaluation of novel semi-conservative monocarbonyl analogs of curcumin as anti-inflammatory agents” (Medchemcomm, 2015).
Activity calls are given as the source filed them. The calls are words filed in the database; no cut-off is given here.

Key:
RAW264.7 [1] = test: Antiinflammatory activity in LPS-induced mouse RAW264.7 macrophages assessed as suppression of TNF-alpha release pretreated at 10 uM for 2 hrs followed by stimulation with LPS for 22 hrs by ELISA; assay type: functional, cell-based
[2] = Cytotoxicity against human HL-7702 cells at 10 uM after 24 hrs by MTT assay; assay type: cell-based; conditions: l02, 24 h
RAW264.7 [3] = test: Antiinflammatory activity in LPS-induced mouse RAW264.7 macrophages assessed as suppression of COX-2 mRNA level pretreated at 10 uM for 2 hrs followed by stimulation with LPS for 6 hrs by RT-qPCR analysis; assay type: functional, cell-based
RAW264.7 [4] = test: Antiinflammatory activity in LPS-induced mouse RAW264.7 macrophages assessed as suppression of IL-6 mRNA level pretreated at 10 uM for 2 hrs followed by stimulation with LPS for 6 hrs by RT-qPCR analysis; assay type: functional, cell-based
RAW264.7 [5] = test: Antiinflammatory activity in LPS-induced mouse RAW264.7 macrophages assessed as suppression of TNF-alpha release pretreated for 2 hrs followed by stimulation with LPS for 22 hrs by ELISA; assay type: functional, cell-based
RAW264.7 [6] = test: Antiinflammatory activity in LPS-induced mouse RAW264.7 macrophages assessed as suppression of IL-6 release pretreated for 2 hrs followed by stimulation with LPS for 22 hrs by ELISA; assay type: functional, cell-based
RAW264.7 [7] = test: Antiinflammatory activity in LPS-induced mouse RAW264.7 macrophages assessed as suppression of TNF-alpha mRNA level pretreated at 10 uM for 2 hrs followed by stimulation with LPS for 6 hrs by RT-qPCR analysis; assay type: functional, cell-based
[8] = Stability in phosphate buffer at pH 7.4 by UV-visible absorption analysis; assay type: physicochemical
[9] = system: Peritoneal macrophage cell; test: Antiinflammatory activity in LPS-induced ICR mouse peritoneal macrophages assessed as suppression of IL-6 release pretreated for 2 hrs followed by stimulation with LPS for 22 hrs by ELISA; assay type: functional, cell-based
[10] = system: Peritoneal macrophage cell; test: Antiinflammatory activity in LPS-induced ICR mouse peritoneal macrophages assessed as suppression of TNF-alpha release pretreated for 2 hrs followed by stimulation with LPS for 22 hrs by ELISA; assay type: functional, cell-based
RAW264.7 [11] = test: Antiinflammatory activity in LPS-induced mouse RAW264.7 macrophages assessed as suppression of IL-1beta mRNA level pretreated at 10 uM for 2 hrs followed by stimulation with LPS for 6 hrs by RT-qPCR analysis; assay type: functional, cell-based
RAW264.7 [12] = test: Antiinflammatory activity in LPS-induced mouse RAW264.7 macrophages assessed as suppression of IL-6 mRNA level pretreated for 2 hrs followed by stimulation with LPS for 6 hrs by RT-qPCR analysis; assay type: functional, cell-based
Mus musculus = test: Antiinflammatory activity in LPS-induced C57BL/6 mouse assessed as survival rate pretreated at 10 mg/kg, iv for 15 mins followed by LPS stimulation measured for 7 days; assay type: functional; conditions: C57BL/6, iv
[13] = molecular target: Transcription factor p65 (Mus musculus) (UniProt Q04207); test: Inhibition of NFkappaB in LPS-induced mouse RAW264.7 cells assessed as decrease in P65 in nucleus pretreated for 2 hrs followed by stimulation with LPS for 1 hr by Western blot analysis; assay type: cell-based
RAW264.7 [14] = test: Antiinflammatory activity in LPS-induced mouse RAW264.7 macrophages assessed as suppression of IL-1beta mRNA level pretreated for 2 hrs followed by stimulation with LPS for 6 hrs by RT-qPCR analysis; assay type: functional, cell-based
[15] = molecular target: Transcription factor p65 (Mus musculus) (UniProt Q04207); test: Inhibition of NFkappaB in LPS-induced mouse RAW264.7 cells assessed as increase in P65 in cytosol pretreated for 2 hrs followed by stimulation with LPS for 1 hr by Western blot analysis; assay type: cell-based
RAW264.7 [16] = test: Antiinflammatory activity in LPS-induced mouse RAW264.7 macrophages assessed as suppression of TNF-alpha mRNA level pretreated for 2 hrs followed by stimulation with LPS for 6 hrs by RT-qPCR analysis; assay type: functional, cell-based
RAW264.7 [17] = test: Antiinflammatory activity in LPS-induced mouse RAW264.7 macrophages assessed as suppression of COX-2 mRNA level pretreated for 2 hrs followed by stimulation with LPS for 6 hrs by RT-qPCR analysis; assay type: functional, cell-based
RAW264.7 [18] = test: Inhibition of LPS-induced IkappaB-alpha degradation in LPS-induced mouse RAW264.7 cells pretreated for 2 hrs followed by stimulation with LPS for 1 hr by Western blot analysis; assay type: cell-based
RAW264.7 [19] = test: Inhibition of NFkappaB in LPS-induced mouse RAW264.7 cells assessed as suppression of binding of NF-kappabeta with DNA in nucleus pretreated for 2 hrs followed by stimulation with LPS for 1 hr by EMSA; assay type: cell-based

Transcription factor p65 (Mus musculus), sequence (Q04207 whole entry): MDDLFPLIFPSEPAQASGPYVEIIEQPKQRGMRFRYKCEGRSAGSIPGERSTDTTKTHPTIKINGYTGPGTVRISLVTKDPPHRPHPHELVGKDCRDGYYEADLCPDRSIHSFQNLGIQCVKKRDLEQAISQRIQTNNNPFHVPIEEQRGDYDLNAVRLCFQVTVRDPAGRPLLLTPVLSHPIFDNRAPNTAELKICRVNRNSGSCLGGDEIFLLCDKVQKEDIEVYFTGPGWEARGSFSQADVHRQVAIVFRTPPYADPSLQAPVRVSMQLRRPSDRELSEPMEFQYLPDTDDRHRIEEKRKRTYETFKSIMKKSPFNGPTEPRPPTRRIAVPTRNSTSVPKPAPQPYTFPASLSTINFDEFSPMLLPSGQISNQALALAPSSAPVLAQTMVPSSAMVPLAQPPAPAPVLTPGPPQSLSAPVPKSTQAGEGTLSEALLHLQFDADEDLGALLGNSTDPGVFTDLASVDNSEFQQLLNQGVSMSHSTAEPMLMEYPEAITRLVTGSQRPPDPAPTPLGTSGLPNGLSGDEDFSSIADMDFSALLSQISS

SMILES: COc1cc(/C=C/C(=O)/C=C/c2ccc(O)cc2Br)ccc1O
- inhibition (RAW264.7 [1]): Active
- Activity [2]: Non-toxic

SMILES: COc1cc(/C=C/C(=O)/C=C/c2cccc(Cl)c2Cl)ccc1O
- inhibition (RAW264.7 [1]): Active
- Activity [2]: Non-toxic

SMILES: COc1cc(/C=C/C(=O)/C=C/c2ccc(OC)c(OC)c2OC)ccc1O
- inhibition (RAW264.7 [3]): Active
- inhibition (RAW264.7 [4]): Active
- inhibition (RAW264.7 [5]): Dose-dependent effect
- inhibition (RAW264.7 [6]): Dose-dependent effect
- inhibition (RAW264.7 [7]): Active
- Stability [8]: Stable
- inhibition [9]: Dose-dependent effect
- inhibition [10]: Dose-dependent effect
- inhibition (RAW264.7 [1]): Active
- Activity [2]: Non-toxic
- inhibition (RAW264.7 [11]): Active

SMILES: COc1cc(/C=C/C(=O)/C=C/c2ccccc2[N+](=O)[O-])ccc1O
- inhibition (RAW264.7 [3]): Active
- inhibition (RAW264.7 [4]): Active
- inhibition (RAW264.7 [12]): Dose-dependent effect
- survival at 10 mg/kg (Mus musculus): 55%
- Activity [13]: Active
- inhibition (RAW264.7 [5]): Dose-dependent effect
- inhibition (RAW264.7 [6]): Dose-dependent effect
- inhibition (RAW264.7 [7]): Active
- Stability [8]: Stable
- inhibition (RAW264.7 [14]): Dose-dependent effect
- Activity [15]: Active
- inhibition (RAW264.7 [16]): Dose-dependent effect
- inhibition (RAW264.7 [17]): Dose-dependent effect
- Activity (RAW264.7 [18]): Dose-dependent effect
- inhibition [9]: Dose-dependent effect
- inhibition [10]: Dose-dependent effect
- inhibition (RAW264.7 [1]): Active
- Activity [2]: Non-toxic
- inhibition (RAW264.7 [19]): Active
- inhibition (RAW264.7 [11]): Active

SMILES: COc1cc(/C=C/C(=O)/C=C/c2ccccc2Cl)ccc1O
- Activity [2]: Non-toxic

SMILES: COc1cc(/C=C/C(=O)/C=C/c2ccc(OC(C)=O)cc2)ccc1O
- Activity [2]: Non-toxic

SMILES: COc1cc(/C=C/C(=O)/C=C/c2ccc(Br)cc2)ccc1O
- Activity [2]: Non-toxic

SMILES: COc1cc(/C=C/C(=O)/C=C/c2ccc3c(c2)CCN3)ccc1O
- Activity [2]: Non-toxic

SMILES: COc1cc(/C=C/C(=O)/C=C/c2cc(Br)ccc2Br)ccc1O
- inhibition (RAW264.7 [1]): Active
- Activity [2]: Non-toxic

SMILES: COc1cc(/C=C/C(=O)/C=C/c2cc(F)ccc2Br)ccc1O
- inhibition (RAW264.7 [1]): Active
- Activity [2]: Non-toxic

SMILES: COc1cc(/C=C/C(=O)/C=C/c2cc([N+](=O)[O-])ccc2F)ccc1O
- Activity [2]: Non-toxic

SMILES: COc1cc(/C=C/C(=O)/C=C/c2ccc([N+](=O)[O-])cc2[N+](=O)[O-])ccc1O
- Activity [2]: Non-toxic

SMILES: COc1ccc(/C=C/C(=O)/C=C/c2ccc(O)c(OC)c2)c(F)c1
- inhibition (RAW264.7 [3]): Active
- inhibition (RAW264.7 [4]): Active
- inhibition (RAW264.7 [5]): Dose-dependent effect
- inhibition (RAW264.7 [6]): Dose-dependent effect
- inhibition (RAW264.7 [7]): Active
- inhibition [9]: Dose-dependent effect
- inhibition [10]: Dose-dependent effect
- inhibition (RAW264.7 [1]): Active
- Activity [2]: Non-toxic
- inhibition (RAW264.7 [11]): Active

SMILES: COc1cc(/C=C/C(=O)/C=C/c2cccc(C(F)(F)F)c2F)ccc1O
- inhibition (RAW264.7 [1]): Active
- Activity [2]: Non-toxic

SMILES: COc1cc(/C=C/C(=O)/C=C/c2ccc(OC)c(Br)c2)ccc1O
- inhibition (RAW264.7 [3]): Active
- inhibition (RAW264.7 [4]): Active
- inhibition (RAW264.7 [5]): Dose-dependent effect
- inhibition (RAW264.7 [6]): Dose-dependent effect
- inhibition (RAW264.7 [7]): Active
- inhibition [9]: Dose-dependent effect
- inhibition [10]: Dose-dependent effect
- inhibition (RAW264.7 [1]): Active
- Activity [2]: Non-toxic
- inhibition (RAW264.7 [11]): Active

SMILES: COc1cc(/C=C/C(=O)/C=C/c2ccc(C(C)C)cc2)ccc1O
- inhibition (RAW264.7 [1]): Active
- Activity [2]: Non-toxic

SMILES: COc1cc(/C=C/C(=O)/C=C/c2ccc(C(F)(F)F)cc2C(F)(F)F)ccc1O
- inhibition (RAW264.7 [1]): Active
- Activity [2]: Non-toxic

SMILES: COc1cc(/C=C/C(=O)/C=C/c2ccccc2Br)ccc1O
- Activity [2]: Non-toxic

SMILES: COc1cc(/C=C/C(=O)/C=C/c2cc3c(cc2Br)OCO3)ccc1O
- inhibition (RAW264.7 [3]): Active
- inhibition (RAW264.7 [4]): Active
- inhibition (RAW264.7 [5]): Dose-dependent effect
- inhibition (RAW264.7 [6]): Dose-dependent effect
- inhibition (RAW264.7 [7]): Active
- inhibition [9]: Dose-dependent effect
- inhibition [10]: Dose-dependent effect
- inhibition (RAW264.7 [1]): Active
- Activity [2]: Non-toxic
- inhibition (RAW264.7 [11]): Active

SMILES: COc1cc(/C=C/C(=O)/C=C/c2ccccc2C(F)(F)F)ccc1O
- inhibition (RAW264.7 [1]): Active
- Activity [2]: Non-toxic

SMILES: COc1cc(/C=C/C(=O)/C=C/c2cccc(Br)c2)ccc1O
- inhibition (RAW264.7 [1]): Active
- Activity [2]: Non-toxic

SMILES: COc1cc(/C=C/C(=O)/C=C/c2ccc(C(F)(F)F)cc2)ccc1O
- inhibition (RAW264.7 [1]): Active
- Activity [2]: Non-toxic

SMILES: COc1cc(/C=C/C(=O)/C=C/c2c(C)cc(C)cc2C)ccc1O
- inhibition (RAW264.7 [3]): Active
- inhibition (RAW264.7 [4]): Active
- inhibition (RAW264.7 [5]): Dose-dependent effect
- inhibition (RAW264.7 [6]): Dose-dependent effect
- inhibition (RAW264.7 [7]): Active
- inhibition [9]: Dose-dependent effect
- inhibition [10]: Dose-dependent effect
- inhibition (RAW264.7 [1]): Active
- Activity [2]: Non-toxic
- inhibition (RAW264.7 [11]): Active

SMILES: COc1cc(/C=C/C(=O)/C=C/c2ccc(Br)c(F)c2)ccc1O
- Activity [2]: Non-toxic

SMILES: COc1cc(/C=C/C(=O)/C=C/c2cc(F)ccc2F)ccc1O
- inhibition (RAW264.7 [1]): Active
- Activity [2]: Non-toxic

SMILES: COc1cc(/C=C/C(=O)/C=C/c2c(F)cccc2Br)ccc1O
- Activity [2]: Non-toxic

SMILES: COc1ccc(F)c(/C=C/C(=O)/C=C/c2ccc(O)c(OC)c2)c1
- Activity [2]: Non-toxic

SMILES: COc1cc(/C=C/C(=O)CC(=O)/C=C/c2ccc(O)c(OC)c2)ccc1O [CURCUMIN]
- inhibition (RAW264.7 [1]): Active
- Activity [2]: Non-toxic

SMILES: COc1cc(/C=C/C(=O)/C=C/c2ccc3ccccc3c2)ccc1O
- Activity [2]: Non-toxic

SMILES: COc1ccc(Br)c(/C=C/C(=O)/C=C/c2ccc(O)c(OC)c2)c1
- inhibition (RAW264.7 [1]): Active
- Activity [2]: Non-toxic

SMILES: C=CCOc1ccc(/C=C/C(=O)/C=C/c2ccc(O)c(OC)c2)cc1
- Activity [2]: Non-toxic

SMILES: COc1cc(/C=C/C(=O)/C=C/c2cccc(O)c2)ccc1O
- inhibition (RAW264.7 [1]): Active
- Activity [2]: Non-toxic
